Reference: patent publication US20240343717A1, “MICROBIOCIDAL PYRAZOLE DERIVATIVES” (SYNGENTA CROP PROTECTION AG, priority 2021, published 2024)

How the values were obtained:
[1] = system: Mycosphaerella arachidis (Cercospora arachidicola); assay: Mycosphaerella arachidis (Cercospora arachidicola) / liquid culture (early leaf spot); format: cell-based; conditions: growth inhibition photometrically 4-5 days after application, read-out: control of Mycosphaerella arachidis
Protocol: (§1) Example B10: Mycosphaerella arachidis (Cercospora arachidicola)/Liquid Culture (Early Leaf Spot) Conidia of the fungus from cryogenic storage are directly mixed into nutrient broth (PDB potato dextrose broth). After placing a (DMSO) solution of test compound into a microtiter plate (96-well format), the nutrient broth containing the fungal spores is added. The test plates are incubated at 24° C. and the inhibition of growth is determined photometrically 4-5 days after application.

[2] = system: Glomerella lagenarium (Colletotrichum lagenarium); assay: Glomerella lagenarium (Colletotrichum lagenarium) / liquid culture (anthracnose); format: cell-based; conditions: Colletotrichum orbiculare, growth inhibition photometrically 3-4 days after application, read-out: control of Glomerella lagenarium
Protocol: as §1, with “B3: Glomerella lagenarium (Colletotrichum lagenarium)/Liquid” for “B10: Mycosphaerella arachidis (Cercospora arachidicola)/Liquid”, “(Anthracnose)” for “(Early Leaf Spot)”, “measured” for “determined”, “3-4” for “4-5”

Pyrenophora teres = Pyrenophora teres / barley / leaf disc preventative (net blotch); format: in vivo; conditions: foliar, barley leaf segments, inoculated 2 days after application
Protocol: Example B14: Pyrenophora teres/Barley/Leaf Disc Preventative (Net Blotch) Barley leaf segments cv. Hasso are placed on agar in a multiwell plate (24-well format) and sprayed with the formulated test compound diluted in water. The leaf segments are inoculated with a spore suspension of the fungus 2 days after application. The inoculated leaf segments are incubated at 20° C. and 65% rh under a light regime of 12 h light/12 h darkness in a climate cabinet and the activity of a compound is assessed as disease control compared to untreated when an appropriate level of disease damage appears in untreated check leaf segments (5-7 days after application).

[3] = system: Mycosphaerella graminicola (Septoria tritici); assay: Mycosphaerella graminicola (Septoria tritici) / liquid culture (Septoria blotch); format: cell-based; conditions: Zymoseptoria tritici, growth inhibition photometrically 4-5 days after application, read-out: control of Mycosphaerella graminicola
Protocol: as §1, with “B16:” for “B10:”, “graminicola (Septoria tritici)/Liquid” for “arachidis (Cercospora arachidicola)/Liquid”, “(Septoria Blotch)” for “(Early Leaf Spot)”

[4] = system: Monographella nivalis (Microdochium nivale); assay: Monographella nivalis (Microdochium nivale) / liquid culture (foot rot cereals); format: cell-based; conditions: growth inhibition photometrically 4-5 days after application, read-out: control of Monographella nivalis
Protocol: as §1, with “B9: Monographella nivalis (Microdochium nivale)/Liquid” for “B10: Mycosphaerella arachidis (Cercospora arachidicola)/Liquid”, “(Foot Rot Cereals)” for “(Early Leaf Spot)”

[5] = system: Botryotinia fuckeliana (Botrytis cinerea); assay: Botryotinia fuckeliana (Botrytis cinerea) / liquid culture (gray mould); format: cell-based; conditions: growth inhibition photometrically 3-4 days after application, read-out: control of Botryotinia fuckeliana
Protocol: as §1, with “B2: Botryotinia fuckeliana (Botrytis cinerea)/Liquid” for “B10: Mycosphaerella arachidis (Cercospora arachidicola)/Liquid”, “(Gray Mould)” for “(Early Leaf Spot)”, “(Vogels” for “(PDB potato dextrose”, “3-4” for “4-5”

Alternaria solani = Alternaria solani / tomato / leaf disc (early blight); format: in vivo; conditions: foliar, tomato leaf disks, sprayed 2 days before inoculation, compared to untreated control
Protocol: Example B1: Alternaria solani/Tomato/Leaf Disc (Early Blight) Tomato leaf disks cv. Baby are placed on agar in multiwell plates (24-well format) and sprayed with the formulated test compound diluted in water. The leaf disks are inoculated with a spore suspension of the fungus 2 days after application. The inoculated leaf disks are incubated at 23° C./21° C.

Cn1cc(C(C)(CNC(=O)c2cc(C3CCCCC3)on2)c2cccc(Cl)n2)cn1 (stereo not drawn) [Compound P-79, N-[2-(6-chloro-2-pyridyl)-2-(1-methylpyrazol-4-yl)propyl]-5-cyclohexyl-isoxazole-3-carboxamide]
≥ 80%: inhibition of growth at 20 ppm [1] | inhibition of growth at 20 ppm [2] | pest or weed control at 200 ppm (Pyrenophora teres) | inhibition of growth at 20 ppm [3] | inhibition of growth at 20 ppm [4]

Cn1cc(C(C)(CNC(=O)c2cc(-c3ccc(F)cc3F)on2)c2cccc(N)n2)cn1 (stereo not drawn) [Compound P-50, N-[2-(6-amino-2-pyridyl)-2-(1-methylpyrazol-4-yl)propyl]-5-(2,4-difluorophenyl) isoxazole-3-carboxamide]
≥ 80%: inhibition of growth at 20 ppm [1] | inhibition of growth at 20 ppm [2] | pest or weed control at 200 ppm (Pyrenophora teres) | inhibition of growth at 20 ppm [3] | inhibition of growth at 20 ppm [5] | inhibition of growth at 20 ppm [4]

CC(=O)c1ccc(C(C)(CNC(=O)c2cc(-c3ccc(F)cc3F)on2)c2cnn(C)c2)nc1 (stereo not drawn) [Compound P-57, N-[2-(5-acetyl-2-pyridyl)-2-(1-methylpyrazol-4-yl)propyl]-5-(2,4-difluorophenyl) isoxazole-3-carboxamide]
≥ 80%: inhibition of growth at 20 ppm [2] | inhibition of growth at 20 ppm [3] | inhibition of growth at 20 ppm [4]

Cn1cc(C(C)(CNC(=O)c2cc(-c3ccc(Cl)cc3Cl)on2)c2cccc(Cl)n2)cn1 (stereo not drawn) [Compound P-28]
≥ 80%: inhibition of growth at 20 ppm [2] | inhibition of growth at 20 ppm [3] | inhibition of growth at 20 ppm [4]

CNC(=O)c1ccc(C(C)(CNC(=O)c2cc(-c3ccc(F)cc3F)on2)c2cnn(C)c2)nc1 (stereo not drawn) [Compound P-56, 5-(2,4-difluorophenyl)-N-[2-[5-(methylcarbamoyl)-2-pyridyl]-2-(1-methylpyrazol-4-yl)propyl]isoxazole-3-carboxamide]
≥ 80%: pest or weed control at 200 ppm (Pyrenophora teres)

Cn1cc(C(C)(CNC(=O)c2cc(-c3ccc(F)cc3F)on2)c2ccc(Br)cn2)cn1 (stereo not drawn) [Compound P-33, N-[2-(5-bromo-2-pyridyl)-2-(1-methylpyrazol-4-yl)propyl]-5-(2,4-difluorophenyl) isoxazole-3-carboxamide]
≥ 80%: inhibition of growth at 20 ppm [2] | inhibition of growth at 20 ppm [3] | inhibition of growth at 20 ppm [4]

COC(=O)c1ccc(C(C)(CNC(=O)c2cc(-c3ccc(F)cc3F)on2)c2cnn(C)c2)nc1 (stereo not drawn) [Compound P-55, methyl 6-[2-[[5-(2,4-difluorophenyl)isoxazole-3-carbonyl]amino]-1-methyl-1-(1-methylpyrazol-4-yl)ethyl]pyridine-3-carboxylate]
≥ 80%: inhibition of growth at 20 ppm [2] | inhibition of growth at 20 ppm [3] | inhibition of growth at 20 ppm [5] | inhibition of growth at 20 ppm [4]

CCS(=O)(=O)c1cccc(C(C)(CNC(=O)c2nnc(-c3ccc(F)cc3F)s2)c2cnn(C)c2)n1 (stereo not drawn) [Compound P-3, 5-(2,4-difluorophenyl)-N-[2-(6-ethylsulfonyl-2-pyridyl)-2-(1-methylpyrazol-4-yl)propyl]-1,3,4-thiadiazole-2-carboxamide]
≥ 80%: pest or weed control at 200 ppm (Pyrenophora teres)

C=C(C)COc1cc(Cl)nc(C(C)(CNC(=O)c2cc(-c3ccc(F)cc3F)on2)c2cnn(C)c2)c1 (stereo not drawn) [Compound P-68, N-[2-[6-chloro-4-(2-methylallyloxy)-2-pyridyl]-2-(1-methylpyrazol-4-yl)propyl]-5-(2,4-difluorophenyl) isoxazole-3-carboxamide]
≥ 80%: inhibition of growth at 20 ppm [1] | inhibition of growth at 20 ppm [2] | inhibition of growth at 20 ppm [3] | inhibition of growth at 20 ppm [5] | inhibition of growth at 20 ppm [4]

Cn1cc(C(C)(CNC(=O)c2cc(-c3ccc(F)cc3F)on2)c2ccncn2)cn1 (stereo not drawn) [Compound P-23, 5-(2,4-difluorophenyl)-N-[2-(1-methylpyrazol-4-yl)-2-pyrimidin-4-yl-propyl]isoxazole-3-carboxamide]
≥ 80%: pest or weed control at 200 ppm (Alternaria solani) | pest or weed control at 200 ppm (Pyrenophora teres)

COc1ccnc(C(C)(CNC(=O)c2cc(-c3ccc(F)cc3F)on2)c2cnn(C)c2)c1 (stereo not drawn) [Compound P-7, 5-(2,4-difluorophenyl)-N-[2-(4-methoxy-2-pyridyl)-2-(1-methylpyrazol-4-yl)propyl]isoxazole-3-carboxamide]
≥ 80%: inhibition of growth at 20 ppm [2] | pest or weed control at 200 ppm (Alternaria solani) | inhibition of growth at 20 ppm [3] | inhibition of growth at 20 ppm [4]

COc1ccc(C(C)(CNC(=O)c2cc(-c3ccc(F)cc3F)on2)c2cnn(C)c2)nn1 (stereo not drawn) [Compound P-105, 5-(2,4-difluorophenyl)-N-[2-(6-methoxypyridazin-3-yl)-2-(1-methylpyrazol-4-yl)propyl] isoxazole-3-carboxamide]
≥ 80%: pest or weed control at 200 ppm (Alternaria solani) | pest or weed control at 200 ppm (Pyrenophora teres)

Cn1cc(C(C)(CNC(=O)c2cc(-c3ccc(F)cc3F)on2)c2ncccc2Br)cn1 (stereo not drawn) [Compound P-53, N-[2-(3-bromo-2-pyridyl)-2-(1-methylpyrazol-4-yl)propyl]-5-(2,4-difluorophenyl) isoxazole-3-carboxamide]
≥ 80%: pest or weed control at 200 ppm (Pyrenophora teres) | inhibition of growth at 20 ppm [4]

Cn1cc(C(C)(CNC(=O)c2cc(C3CC3)on2)c2cccc(Cl)n2)cn1 (stereo not drawn) [Compound P-78, N-[2-(6-chloro-2-pyridyl)-2-(1-methylpyrazol-4-yl)propyl]-5-cyclopropyl-isoxazole-3-carboxamide]
≥ 80%: inhibition of growth at 20 ppm [1] | inhibition of growth at 20 ppm [3] | inhibition of growth at 20 ppm [4]

Cn1cc(C(C)(CNC(=O)c2cc(-c3ccc(F)cc3F)on2)c2ccc(Cl)cn2)cn1 (stereo not drawn) [Compound P-20, N-[2-(5-chloro-2-pyridyl)-2-(1-methylpyrazol-4-yl)propyl]-5-(2,4-difluorophenyl) isoxazole-3-carboxamide]
≥ 80%: inhibition of growth at 20 ppm [2] | pest or weed control at 200 ppm (Pyrenophora teres) | inhibition of growth at 20 ppm [3] | inhibition of growth at 20 ppm [4]

Cn1cc(C(C)(CNC(=O)c2cc(-c3ccc(F)cc3F)on2)c2ncccc2Cl)cn1 (stereo not drawn) [Compound P-2, N-[2-(3-chloro-2-pyridyl)-2-(1-methylpyrazol-4-yl)propyl]-5-(2,4-difluorophenyl) isoxazole-3-carboxamide]
≥ 80%: pest or weed control at 200 ppm (Pyrenophora teres) | inhibition of growth at 20 ppm [3] | inhibition of growth at 20 ppm [5] | inhibition of growth at 20 ppm [4]

Cn1ncc(C(CNC(=O)c2cc(-c3ccc(F)cc3F)on2)c2cccc(C#N)n2)c1Cl (stereo not drawn) [Compound P-117]
≥ 80%: inhibition of growth at 20 ppm [1] | inhibition of growth at 20 ppm [2] | inhibition of growth at 20 ppm [3] | inhibition of growth at 20 ppm [5] | inhibition of growth at 20 ppm [4]

CNC(=O)c1cccc(C(C)(CNC(=O)c2cc(-c3ccc(F)cc3F)on2)c2cnn(C)c2)n1 (stereo not drawn) [Compound P-45, 5-(2,4-difluorophenyl)-N-[2-[6-(methylcarbamoyl)-2-pyridyl]-2-(1-methylpyrazol-4-lyl)propyl]isoxazole-3-carboxamide]
≥ 80%: pest or weed control at 200 ppm (Pyrenophora teres)

CC(=O)Nc1cccc(C(C)(CNC(=O)c2cc(-c3ccc(F)cc3F)on2)c2cnn(C)c2)n1 (stereo not drawn) [Compound P-52, N-[2-(6-acetamido-2-pyridyl)-2-(1-methylpyrazol-4-yl)propyl]-5-(2,4-difluorophenyl) isoxazole-3-carboxamide]
≥ 80%: pest or weed control at 200 ppm (Pyrenophora teres)

Cn1cc(C(C)(CNC(=O)c2nnc(-c3ccc(F)cc3F)s2)c2ccc(Cl)cn2)cn1 (stereo not drawn) [Compound P-17, N-[2-(5-chloro-2-pyridyl)-2-(1-methylpyrazol-4-yl)propyl]-5-(2,4-difluorophenyl)-1,3,4-thiadiazole-2-carboxamide]
≥ 80%: inhibition of growth at 20 ppm [1] | inhibition of growth at 20 ppm [2] | inhibition of growth at 20 ppm [3] | inhibition of growth at 20 ppm [4]
